Patent US20190151289A1, “Identification of Small Molecule Inhibitors of Jumonji AT-Rich Interactive Domain 1A (JARID1A) Histone Demethylase” (YALE UNIVERSITY, priority 2016, published 2019)
Read-outs that look alike come from different tables or passages of the source.

Legend:
[1] = target: T1, full-length FLAG-KDM5A (Homo sapiens, UniProt P29375); experiment: AlphaScreen KDM5A demethylation assay (bio-H3K4me3 peptide); assay type: biochemical
T1 construct: Sf21 insect cells were infected with baculovirus to express full-length FLAG-KDM5A; made in house; host or cells: Sf21 insect cells (baculovirus)
Procedure: Histone demethylase assays were performed using previously described methods (Sayegh et al., 2013, J. Biol. Chem. 9408-9417), with the exception of all enzyme reactions containing 125 μM α-KG. Enzymes were used at the following approximate concentrations in validation experiments, chosen based on their activity in AlphaScreen assays: 19 nM FLAG-KDM5A, 15 nM FLAG-KDM5B, 6 nM FLAG-KDM5C, 29 nM His-FLAG-KDM6A, and 16 nM FLAG-KDM6B. 24 nM FLAG-KDM5A was used for Km determination experiments. Reactions were carried out for 1 hour, or were stopped by addition of 30 mM EDTA every 5 minutes for determining enzyme kinetics. Km values were calculated using the Michaelis-Menten non-linear regression analysis on GraphPad Prism 6.0 software. The concentration of DMSO in demethylation reactions was 0.05%. For reactions with catalase, catalase (Sigma C30) or an equal volume of dilution buffer was added to the peptide-containing buffer before addition of the demethylase. The final concentration of catalase in the reactions was 0.01 mg/ml.
The AlphaScreen general IgG (protein A) detection kit from PerkinElmer Life Sciences was used as described previously (Sayegh et al., 2013, J. Biol. Chem. 9408-9417). The luminescence emission was recorded at 570 nm using the AlphaScreen optic module on a Pherastar (BMG Labtech) or Envision (PerkinElmer Life Sciences) microplate reader.
8,861 compounds from the ChemBridge MW-Set, ChemBridge DIVERSet, MicroSource Gen-Plus, MicroSource Pure Natural Products, NIH Clinical Collection, and Enzo Epigenetics libraries were screened for inhibition of FLAG-KDM5A demethylase activity. Compounds were dissolved in DMSO and added at 20 μM to 384-well white plates (Corning 3574) containing 64 nM bio-H3K4me3 peptide in demethylase buffer prior to addition of 13 nM FLAG-KDM5A. Hits were selected at a threshold of three standard deviations (˜30% inhibition). A counter-screen was performed with the hits to eliminate any non-specific compounds. For this, 20 μM compounds were added to 64 nM bio-H3K4me2 peptide in demethylase buffer with no enzyme. Any hits that interfered with the positive signal detection were eliminated. Dose-response curves were performed on selected hits using 0.1-11 μM of compound. Further validation of top hits was performed using 5 μM of each compound or a dose-response curve using 0.05-50 μM of the compound.
Fresh compounds were ordered to confirm identity. IC50 curves were generated for YUKA1 and YUKA2 using 0.05-50 μM compound in 1 hour reactions. IC50 values were calculated by log transformation and non-linear regression log (inhibitor) versus response (three parameters) using Graphpad Prism 6.0 software. Percent activity of KDM5A was calculated for each data point by subtracting the background (average H3K4me3 signal) and dividing by the average signal for the DMSO controls. α-KG competition tests were performed using 150 nM H3K4me3 peptide and 50 μM Fe(II).
AlphaScreen technology (Perkin Elmer) was utilized to perform a screen for small molecule inhibitors of KDM5A. The assay was comprised of two steps, a demethylation reaction followed by detection of the product. A biotinylated H3K4me3 peptide was used as substrate in the demethylation reaction with KDM5A in the presence or absence of small molecule inhibitors. The presence of peptide product (H3K4me1/2) was detected using a product-specific antibody and beads. For this, acceptor beads coated in protein A bound to the antibody, which recognized the peptide product. Donor beads coated in streptavidin bound biotin on the peptide substrate. […]

[2] = system: H3K4 methylation in HeLa cells; experiment: Western blot of global H3K4 methylation, HeLa; assay type: cell-based, human
Procedure: Sf21 insect cells were cultured at 27° C. in Grace's medium (Gibco) with 10% fetal bovine serum (FBS) and 1% penicillin/streptomycin. HeLa cells were cultured in DMEM (Gibco) with 10% FBS and 1% penicillin/streptomycin. BT474, MCF7, MDA-MB-231, PC9 and ZR-75-1 cells were cultured in RPMI 1640 (Gibco) with 10% FBS and 1% penicillin/streptomycin. MCF10A cells were cultured as using previously described methods (Sayegh et al., 2013, J. Biol. Chem. 9408-9417). All human cells were cultured at 37° C. and 5% carbon dioxide. HeLa and MCF7 cell lines were authenticated using short tandem repeat profiling performed at the DNA Analysis Facility on Science Hill at Yale University. All other human cell lines used were within 10 passages after being obtained from the American Type Culture Collection.
Cells were lysed using previously described methods (Lin et al., 2011, Proc. Natl. Acad. Sci. U.S.A. 108:13379-13386). Histones were separated by centrifugation, resuspended in Laemmeli buffer, and sonicated. Protein concentration of cell lysates was measured by Bradford assay. Samples in Laemmeli buffer were boiled 10 minutes at 95° C. and loaded onto 7% (whole cell lysates) or 18% (histones) SDS-PAGE gels. Membranes were blocked in 4% non-fat milk in Tris-buffered saline with 0.05% Tween (TBS-T) and incubated with primary antibodies in the same buffer or 5% bovine serum albumin in TBS-T overnight at 4° C. Membranes were incubated with secondary anti-rabbit or anti-mouse antibodies for one hour at room temperature. Blots were visualized by Thermo Scientific Pierce ECL Western Blotting Substrate (32106) or EMD Millipore Immobilon Western Chemiluminescent HRP Substrate (WBKLS0100) on film. Signal was quantified using ImageJ software.

[3] = system: MCF10A cells; experiment: WST-1 cell proliferation assay, MCF10A; assay type: cell-based, human; details: 5 days of treatment
Procedure: WST-1 reagent from Roche Applied Sciences (11644807001) was used to measure cell number before drug addition and after 3 or 5 days of growth using previously described methods (Sayegh et al., 2013, J. Biol. Chem. 9408-9417). Cells were seeded in 96-well plates at the following number of cells per well: HeLa (2000), MCF7 (2000), ZR-75-1 (1000), MCF10A (1000), MDA-MB-231(5000). Assays were performed in technical quadruplicates and biological triplicates. DMSO was used at 0.1%. Relative absorbance was calculated by subtracting the average background (media only) signal, dividing by the average signal on day 0, and then dividing by the average day 5/day 0 ratio for the DMSO controls. Significance was calculated by unpaired, two-tailed student's t-test using GraphPad Prism 6.0 software.

T1 sequence (P29375 whole entry): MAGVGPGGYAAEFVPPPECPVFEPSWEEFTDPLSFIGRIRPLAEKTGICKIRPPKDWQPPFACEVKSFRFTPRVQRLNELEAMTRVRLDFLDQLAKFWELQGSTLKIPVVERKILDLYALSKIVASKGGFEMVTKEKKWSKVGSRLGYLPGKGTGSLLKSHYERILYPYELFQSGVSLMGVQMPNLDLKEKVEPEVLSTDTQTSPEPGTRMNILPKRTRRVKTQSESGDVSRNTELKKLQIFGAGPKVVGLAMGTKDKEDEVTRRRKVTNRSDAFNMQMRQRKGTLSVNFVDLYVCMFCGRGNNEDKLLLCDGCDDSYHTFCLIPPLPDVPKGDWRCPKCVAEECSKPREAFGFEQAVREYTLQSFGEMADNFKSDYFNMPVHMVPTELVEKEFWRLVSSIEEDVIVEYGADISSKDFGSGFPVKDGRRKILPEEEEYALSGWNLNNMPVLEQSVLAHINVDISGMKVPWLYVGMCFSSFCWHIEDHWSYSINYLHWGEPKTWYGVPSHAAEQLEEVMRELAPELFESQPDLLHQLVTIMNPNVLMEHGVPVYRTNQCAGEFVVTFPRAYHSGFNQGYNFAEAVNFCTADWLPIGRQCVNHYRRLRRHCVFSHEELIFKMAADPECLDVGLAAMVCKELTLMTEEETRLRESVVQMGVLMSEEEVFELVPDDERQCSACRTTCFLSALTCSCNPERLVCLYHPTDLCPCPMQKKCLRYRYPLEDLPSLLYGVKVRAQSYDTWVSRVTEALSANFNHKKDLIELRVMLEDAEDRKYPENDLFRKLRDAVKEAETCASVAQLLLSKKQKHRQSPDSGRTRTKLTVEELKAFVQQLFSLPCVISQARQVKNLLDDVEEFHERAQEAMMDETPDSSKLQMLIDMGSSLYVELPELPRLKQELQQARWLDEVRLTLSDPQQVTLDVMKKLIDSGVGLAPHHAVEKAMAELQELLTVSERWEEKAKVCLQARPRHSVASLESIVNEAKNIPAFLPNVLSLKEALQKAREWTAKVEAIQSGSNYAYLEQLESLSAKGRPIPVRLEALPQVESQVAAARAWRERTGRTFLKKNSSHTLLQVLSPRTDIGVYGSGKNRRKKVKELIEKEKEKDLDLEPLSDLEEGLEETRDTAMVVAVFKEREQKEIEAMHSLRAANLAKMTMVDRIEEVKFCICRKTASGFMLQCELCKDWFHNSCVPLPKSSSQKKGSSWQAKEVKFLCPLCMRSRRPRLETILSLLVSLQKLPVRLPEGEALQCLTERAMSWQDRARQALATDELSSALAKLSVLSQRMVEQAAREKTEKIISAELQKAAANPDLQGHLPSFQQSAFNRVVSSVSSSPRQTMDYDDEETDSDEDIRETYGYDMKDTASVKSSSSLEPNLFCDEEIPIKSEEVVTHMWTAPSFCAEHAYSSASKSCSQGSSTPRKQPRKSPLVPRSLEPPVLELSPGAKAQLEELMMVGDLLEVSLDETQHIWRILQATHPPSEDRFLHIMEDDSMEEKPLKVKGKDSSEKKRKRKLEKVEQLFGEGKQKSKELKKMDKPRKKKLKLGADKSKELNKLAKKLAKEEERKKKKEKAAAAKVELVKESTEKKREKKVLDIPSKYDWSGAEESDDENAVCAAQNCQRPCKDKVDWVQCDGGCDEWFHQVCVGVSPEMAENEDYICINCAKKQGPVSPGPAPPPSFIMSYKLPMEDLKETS

- mode of KDM5A inhibition with respect to Fe(II) [1]: uncompetitive with respect to Fe(II)
- KDM5A enzyme inhibition at low Fe(II) ([1]; 5 μM Fe(II)): too weak to generate robust IC50 curves
- effect of catalase on inhibitory potency against KDM5A ([1]; 0.01 mg/ml catalase): did not affect the inhibitory potency
- IC50 ([1]; 0.05-50 μM compound, 1 hour reactions, read-out: average in vitro IC50 against KDM5A): 2660 nM
- change of KDM5A IC50 with α-KG concentration ([1]; 16-fold range of α-KG, 150 nM H3K4me3 peptide, 50 μM Fe(II)): did not change significantly
- IC50 ([1]; inhibitors found by high throughput screening, read-out: KDM5A IC50): 1320 nM
SMILES: C=CCOc1c(CNn2cnnc2S)cccc1OC [YUKA1, 4-([2-(allyloxy)-3-methoxybenzyl]amino)-4H-1,2,4-triazole-3-thiol]
- H3K4me2 and H3K4me1 levels ([2]; HeLa): increased
- cell activity by global H3K4 methylation changes ([2]; HeLa and MCF7 cell lines, western blot): cell-active
- global H3K4me3 levels ([2]; HeLa, 48 hour treatment): dose-dependent increase
- cell proliferation [3]: did not hinder cell proliferation
